Measured values reported in patent US20200087403A1, “PHARMACEUTICAL COMPOSITIONS FOR THE TREATMENT OF THROMBOSIS IN PATIENTS SUFFERING FROM A MYELOPROLIFERATIVE NEOPLASM” (INSERM (INSTITUT NATIONAL DE LA SANTÉ ET DE LA RECHERCHE …, priority 2017, published 2020).

Key:
JAK2V617F HUVECs [1] = assay: Quantification of VWF in HUVEC supernatant; type: cell-based, human; conditions: 24 hours with 100 μM hydroxyurea
Description: Quantification of VWF in HUVEC supernatant and in HUVECs. HUVEC cell were seeded in 12 wells plate (Costar). When they were confluent, they were washed with 500 μL of PBS (Gibco ThermoFisher Scientific) before adding 500 μL of medium not deprived. Experiments were performed in absence or in presence of TNF-alpha (10 ng/ml during 24 hours) (Merck Millipore). After 24 hours, supernatant was removed, centrifuged at 12000 g during 5 minutes and stored at −80° C. To quantify vWF in HUVECs, cells were washed with PBS before adding in wells 500 μL of PBS. Cells were destroyed in wells with scrapper. Liquid was removed and 5 freezing and thawing successions were performed. Finally, the intracellular lysates were centrifuged at 12000 g during 5 minutes and stored at −80° C. As previously published^45, vWF was quantified following this method: […] plate (Greiner, Flat Bottom) were coated with an anti-vWF antibody (DAKO, Les Ulis, France, A0082) diluted at 1/660 in a coating buffer overnight at 4° C. After washing and blocking, sample of HUVEC supernatant and intracellular lysate were put in wells. Standards were realized with a platelet poor plasma from a healthy donor. […] After 2 minutes of coloration, the reaction was blocked with a H2SO4 3M solution and reading was performed at 492 nm with OPTIMA plate reader. […]

[2] = system: Pdgfb-iCreERT2;JAK2^V617F/WT mice; assay: Intravital microscopy of mesenteric venules (leukocyte rolling and adhesion); type: in vivo; conditions: HU 200 mg/kg/day oral gavage 10 days, low dose TNF-alpha
Excerpt: (§1) Generation and characterization of Pdgfb-iCreERT2;JAK2^V617F/WT mice. The conditional flexed JAK2 (JAK2V617F/WT) mice were generously provided by J. L Villeval and have been previously described^19. The double-heterozygous Pdgfb-iCreERT2;JAK2^V617F/WT mice were generated by crossing JAK2^V617F/WT mice with Pdgfb-iCreERT2 mice allowing tamoxifen-inducible adult expression of JAK2^V617F in endothelium. Littermate Pdgfb-iCreERT2-negative;JAK2^V617F/WT mice were used as controls. To induce Cre activity in Pdgfb-iCreERT2;JAK2^V617F/WT mice, we used oral gavage of a single dose of 8 mg of tamoxifen. Tamoxifen induction was performed in 5 weeks-old animals. Mutant mice were analysed 2-3 weeks after tamoxifen administration. Ears of adult mice were genotyped by PCR. Haematocrit, hemoglobin level, platelet, and white cells count were determined using an automated counter (scil Vet abc Plus+) on blood collected from the sublingual vein in EDTA containing tubes. […]
Video analysis. Rolling leukocytes were quantitated by counting the number of rhodamin-marked cells passing a given plane perpendicular to the vessel axis in 30 seconds. Adherent leukocytes were quantitated by counting the number of rhodamin-marked cells motionless during 30 seconds. Vessel surface was quantitated to perform the following ratio: adherent cells/vessel surface (number of cells/cm2). […]

JAK2V617F HUVECs [3] = assay: In vitro static adhesion on endothelial cells; type: cell-based, human; conditions: HUVECs pretreated 24 hours with hydroxyurea 100 μM
Description: Cell culture/Lentivirus transduction. Human umbilical venous endothelial cells (HUVECs, Lonza, Basel, Swiss) were cultured in EGM-2 media (Lonza, CC-3156) supplemented with EGM-2 Single Quots (Lonza, CC-4176). Cells were transduced with GFP lentivirus encoding human JAK2V617F or JAK2WT by adding lentiviral supernatant to the medium and incubating overnight at 37° C. An empty lentivirus encoding only for GFP was used as a negative control. Lentivirus were transduced at a multiplicity of infection of 20, allowing more than 95% of GFP positive cells. Transgene stability was verified after each passage and remaining stable throughout the passages. HUVECs were used for experiments between passage 5 and passage 7.
In vitro static adhesion on endothelial cells. Blood samples were performed from well healthy voluntary witnesses. Blood was diluted with PBS (1/2 dilution) and deposed on lymphocyte separation medium (Pancoll, Dominique Dutscher, Brumath, France) before centrifugation at 450 g during 20 minutes to obtain mononuclear cells (MNC). […] We visualized adherent cells using a fluorescent microscope (AxioObserver, Zeiss, Oberkochen, Germany) and analysed images by ZEN imaging software (Zeiss). Well surface was quantified in order to obtain the following ratio: number of adherent cells/mm2. […]

[4] = system: Pdgfb-iCreERT2;JAK2^V617F/WT mice; assay: Mouse model of thrombus formation (low dose TNF-alpha induced lung thrombus formation); type: in vivo; conditions: HU 200 mg/kg/day oral gavage 10 days
Excerpt: as §1
Histology. To quantify thrombus formation in mice, Carstair's staining was performed. […] Thrombus quantification was performed using an optical microscope and pulmonary area was quantitated to perform the following ratio: thrombi number/pulmonary area (number of thrombi/cm2). Three slides by mice were analysed by two independent observers, blindly. […]

sickle cell mice = conditions: TNF-alpha treated sickle cell mice; cited from earlier work
P-selectin = target: T1, P-selectin (Homo sapiens, UniProt P16109); conditions: clinical trial, patients; cited from earlier work
T1 construct: host or cells: sickle cell disease patients (cited clinical trial)
T1 sequence (P16109 42-830): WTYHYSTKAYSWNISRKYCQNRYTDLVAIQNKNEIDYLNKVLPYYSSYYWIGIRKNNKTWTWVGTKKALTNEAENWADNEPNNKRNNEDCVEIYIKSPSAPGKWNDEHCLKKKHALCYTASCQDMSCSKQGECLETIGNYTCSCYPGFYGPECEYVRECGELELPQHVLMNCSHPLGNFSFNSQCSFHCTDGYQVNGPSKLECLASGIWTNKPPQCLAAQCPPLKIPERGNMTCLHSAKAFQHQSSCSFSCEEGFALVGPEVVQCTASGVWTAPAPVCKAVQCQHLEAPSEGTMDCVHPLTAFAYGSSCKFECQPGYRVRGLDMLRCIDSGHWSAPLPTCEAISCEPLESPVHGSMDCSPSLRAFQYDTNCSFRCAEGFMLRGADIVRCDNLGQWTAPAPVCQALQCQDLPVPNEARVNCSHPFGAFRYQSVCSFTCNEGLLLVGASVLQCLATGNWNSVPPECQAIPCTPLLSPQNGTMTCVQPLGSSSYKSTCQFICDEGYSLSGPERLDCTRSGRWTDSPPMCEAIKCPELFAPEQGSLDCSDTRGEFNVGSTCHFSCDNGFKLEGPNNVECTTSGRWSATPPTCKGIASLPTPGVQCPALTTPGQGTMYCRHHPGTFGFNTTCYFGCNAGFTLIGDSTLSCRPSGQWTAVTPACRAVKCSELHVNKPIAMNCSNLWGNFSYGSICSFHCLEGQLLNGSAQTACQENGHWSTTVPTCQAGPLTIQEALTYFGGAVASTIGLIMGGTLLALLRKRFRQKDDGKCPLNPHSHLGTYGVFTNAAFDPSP

With NC(=O)NO [hydroxyurea] the “vWF concentrations in the supernatant of JAK2V617F HUVECs” value (JAK2V617F HUVECs [1]) was “decreased”, the leukocyte adhesion [2] was “reduction” and the leukocyte rolling [2] was “reduction”. The “neutrophil adhesion on JAK2V617F HUVECs” value (JAK2V617F HUVECs [3]) was “significant reduction”, the “thrombus formation in lungs” value [4] was “significant inhibition” and the “leukocyte rolling in the microvasculature” value (sickle cell mice) was “reduction”.

B1: crizanlizumab: anti-P-selectin antibody, SEG101 also named crizanlizumab (antibody, chains of the INN, looked up, V domains shown)
VH: QVQLVQSGAEVKKPGASVKVSCKVSGYTFTSYDINWVRQAPGKGLEWMGWIYPGDGSIKYNEKFKGRVTMTVDKSTDTAYMELSSLRSEDTAVYYCARRGEYGNYEGAMDYWGQGTLVTVSS
VL: DIQMTQSPSSLSASVGDRVTITCKASQSVDYDGHSYMNWYQQKPGKAPKLLIYAASNLESGVPSRFSGSGSGTDFTLTISSLQPEDFATYYCQQSDENPLTFGGGTKVEIK
In the case of B1, the “pain crises in sickle cell disease” value (P-selectin) is given as “efficiently prevented”.
